Reference: ChEMBL document CHEMBL1201862, “PubChem BioAssay data set” (2004)
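Step 1: Grow cells in 96-well plates. Step 2: Expose to compound for 48 hours at 5 concentrations. Step 3: Interpolate endpoints linearly; if unreached, use highest concentration. GI50: concentration for 50% inhibition of growth.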 Active and inactive are the calls of the source. Rule as the data show it: active = GI50 up to about 1.1 µM and inactive = higher.

How the values were obtained:
Assay in all cases: DTP human tumour cell line panel, 48 h
SR = system: SR
A549 = system: A549
RPMI-8226 = system: RPMI-8226
NCI-H460 = system: NCI-H460
M14 = system: M14
NCI-H23 = system: NCI-H23
IGROV-1 = system: IGROV-1
OVCAR-5 = system: OVCAR-5
SW-620 = system: SW-620
CCRF-CEM = system: CCRF-CEM
786-0 = system: 786-0
Malme-3M = system: Malme-3M
TK-10 = system: TK-10
COLO 205 = system: COLO 205
MOLT-4 = system: MOLT-4
SK-MEL-28 = system: SK-MEL-28
CAKI-1 = system: CAKI-1
SN12C = system: SN12C
PC-3 = system: PC-3
DU-145 = system: DU-145

| SMILES | GI50 (SR) | GI50 (A549) | GI50 (RPMI-8226) | GI50 (NCI-H460) | GI50 (M14) | GI50 (NCI-H23) | GI50 (IGROV-1) | GI50 (OVCAR-5) | GI50 (SW-620) | GI50 (CCRF-CEM) | GI50 (786-0) | GI50 (Malme-3M) | GI50 (TK-10) | GI50 (COLO 205) | GI50 (MOLT-4) | GI50 (SK-MEL-28) | GI50 (CAKI-1) | GI50 (SN12C) | GI50 (PC-3) | GI50 (DU-145) |
| --- | --- | --- | --- | --- | --- | --- | --- | --- | --- | --- | --- | --- | --- | --- | --- | --- | --- | --- | --- | --- |
| CNC(=O)CN(CC(N)=O)C(=O)NC | > 100 µM (inactive) | > 100 µM (inactive) | > 100 µM (inactive) | > 100 µM (inactive) | > 100 µM (inactive) | > 100 µM (inactive) | > 100 µM (inactive) | > 100 µM (inactive) | > 100 µM (inactive) | > 100 µM (inactive) | > 100 µM (inactive) | > 100 µM (inactive) | > 100 µM (inactive) | > 100 µM (inactive) | > 100 µM (inactive) | > 100 µM (inactive) | > 100 µM (inactive) |  |  |  |
| C=CC(=O)Nc1ccc(NC(=O)C=C)c2c1C(=O)c1ccccc1C2=O | 28.1 µM (inactive) | > 100 µM (inactive) | 3.03 µM (inactive) | > 100 µM (inactive) | 29.6 µM (inactive) | 48.6 µM (inactive) | > 100 µM (inactive) | > 100 µM (inactive) | 26.4 µM (inactive) |  | 21.5 µM (inactive) | > 100 µM (inactive) | 23.2 µM (inactive) | > 100 µM (inactive) | 21.6 µM (inactive) | 33.5 µM (inactive) |  | 35.8 µM (inactive) | 40.8 µM (inactive) |  |
| O=C(Nc1ccc(C(F)(F)F)cc1[N+](=O)[O-])c1cccnc1 | 1.01 µM (active) | 6.75 µM (inactive) | 5.08 µM (inactive) | 3.15 µM (inactive) | 5.09 µM (inactive) | 33.2 µM (inactive) | 6.44 µM (inactive) | 73.5 µM (inactive) | 3.14 µM (inactive) | 4.85 µM (inactive) | 10.7 µM (inactive) | 2.15 µM (inactive) | 5.46 µM (inactive) | 4.84 µM (inactive) | 9.1 µM (inactive) | 0.386 µM (active) | 2.81 µM (inactive) | 7.83 µM (inactive) |  | 7.08 µM (inactive) |
| COC(=O)/C(=N\NC(=S)NN)C(C(=O)OC)C(=O)C(=O)Nc1cccc(C(F)(F)F)c1 (centres undefined) |  | > 100 µM (inactive) | > 100 µM (inactive) | > 100 µM (inactive) | > 100 µM (inactive) | > 100 µM (inactive) | > 100 µM (inactive) | 79.1 µM (inactive) | > 100 µM (inactive) | > 100 µM (inactive) | > 100 µM (inactive) | > 100 µM (inactive) | > 100 µM (inactive) |  |  | 49.3 µM (inactive) | > 100 µM (inactive) | > 100 µM (inactive) | > 100 µM (inactive) |  |
| N#Cc1c2c([nH]c(=O)c1C#N)CCCC2 |  | > 100 µM (inactive) |  | > 100 µM (inactive) | > 100 µM (inactive) | > 100 µM (inactive) | > 100 µM (inactive) | > 100 µM (inactive) | > 100 µM (inactive) | > 100 µM (inactive) | > 100 µM (inactive) | > 100 µM (inactive) | > 100 µM (inactive) | > 100 µM (inactive) | > 100 µM (inactive) | > 100 µM (inactive) | > 100 µM (inactive) | > 100 µM (inactive) | > 100 µM (inactive) | > 100 µM (inactive) |
| C=C1C(C(=O)O)C1C(=O)O (centres undefined) | > 100 µM (inactive) | > 100 µM (inactive) | > 100 µM (inactive) | > 100 µM (inactive) | > 100 µM (inactive) | > 100 µM (inactive) | > 100 µM (inactive) | > 100 µM (inactive) | > 100 µM (inactive) | > 100 µM (inactive) | > 100 µM (inactive) | > 100 µM (inactive) | > 100 µM (inactive) |  | > 100 µM (inactive) | > 100 µM (inactive) | > 100 µM (inactive) | > 100 µM (inactive) |  |  |
| O=C1NCCS(=O)(=O)N2CCC[C@@H]12 | > 100 µM (inactive) | > 100 µM (inactive) | > 100 µM (inactive) | > 100 µM (inactive) | > 100 µM (inactive) | > 100 µM (inactive) | > 100 µM (inactive) | > 100 µM (inactive) | > 100 µM (inactive) | > 100 µM (inactive) | > 100 µM (inactive) | > 100 µM (inactive) | > 100 µM (inactive) | > 100 µM (inactive) | > 100 µM (inactive) | > 100 µM (inactive) | > 100 µM (inactive) | > 100 µM (inactive) |  |  |
| CC(C)=C[C@H]1CCC2(OCCO2)[C@]1(C)COCc1ccccc1 |  | 33.3 µM (inactive) | 18.2 µM (inactive) | 22.3 µM (inactive) | 33.3 µM (inactive) | 25.8 µM (inactive) |  | 18.4 µM (inactive) | 29.1 µM (inactive) | 16.1 µM (inactive) | 31 µM (inactive) | 23.9 µM (inactive) | 40.7 µM (inactive) | 17.6 µM (inactive) | 13.8 µM (inactive) | 60.5 µM (inactive) | 32 µM (inactive) | 24.5 µM (inactive) | 39.9 µM (inactive) |  |
| CCCNC(=O)Cn1c2c(c3ccccc31)CCCC2 | 42.8 µM (inactive) | 53.8 µM (inactive) | 40.7 µM (inactive) | 58.2 µM (inactive) | > 100 µM (inactive) | 72.3 µM (inactive) | > 100 µM (inactive) | > 100 µM (inactive) | 55.6 µM (inactive) | > 100 µM (inactive) | > 100 µM (inactive) | > 100 µM (inactive) | > 100 µM (inactive) | > 100 µM (inactive) | 43.6 µM (inactive) | 88.9 µM (inactive) | 77.1 µM (inactive) | 65.2 µM (inactive) | 63.8 µM (inactive) |  |
| Cc1ccc2c(c1)-c1nc(N)c(C#N)c(-c3ccccc3)c1CCS2(=O)=O |  | 55 µM (inactive) | > 100 µM (inactive) | 75.2 µM (inactive) | > 100 µM (inactive) | 87.9 µM (inactive) | 31.3 µM (inactive) | 55 µM (inactive) | > 100 µM (inactive) |  | 19 µM (inactive) | 23.8 µM (inactive) | 23.7 µM (inactive) | > 100 µM (inactive) |  | > 100 µM (inactive) | 49.3 µM (inactive) | 41.4 µM (inactive) | 49.2 µM (inactive) | 65.2 µM (inactive) |
| CC(C)CC(NC(=O)OC(C)(C)C)C(=O)Nc1ccc(Nc2nc(F)nc(-c3c4ccccc4c4n3CCS4)n2)cc1 (centres undefined) | 14.1 µM (inactive) | 48.4 µM (inactive) | 24.4 µM (inactive) | 14.8 µM (inactive) | 20.2 µM (inactive) | 18.7 µM (inactive) | 24 µM (inactive) | 22.4 µM (inactive) | 16.1 µM (inactive) | 3.65 µM (inactive) | 19.8 µM (inactive) | 21.2 µM (inactive) | 28.8 µM (inactive) | 18.9 µM (inactive) | 16 µM (inactive) | 23.5 µM (inactive) | 18.2 µM (inactive) | 21.6 µM (inactive) |  |  |
| COc1ccc2c(c1)CCN1C3=C(CCC3)C(=O)C[C@@H]21 | 31.1 µM (inactive) | > 100 µM (inactive) | > 100 µM (inactive) | > 100 µM (inactive) | > 100 µM (inactive) | > 100 µM (inactive) | > 100 µM (inactive) | 89.9 µM (inactive) | > 100 µM (inactive) | > 100 µM (inactive) | > 100 µM (inactive) | > 100 µM (inactive) | 44.7 µM (inactive) | > 100 µM (inactive) | > 100 µM (inactive) | > 100 µM (inactive) | > 100 µM (inactive) | > 100 µM (inactive) |  |  |
| [N-]=[N+]=Nc1cc(=O)[nH]c2ccccc12 | 41.3 µM (inactive) | > 100 µM (inactive) | 81.8 µM (inactive) |  | > 100 µM (inactive) | > 100 µM (inactive) | 31.9 µM (inactive) | > 100 µM (inactive) | > 100 µM (inactive) | > 100 µM (inactive) | > 100 µM (inactive) | 94.6 µM (inactive) | 53 µM (inactive) | > 100 µM (inactive) | 92.5 µM (inactive) | > 100 µM (inactive) | > 100 µM (inactive) | > 100 µM (inactive) | 39.4 µM (inactive) |  |
| COC(=O)C12C3C4C5(C(=O)OC)C(C1C35C(=O)N(C(C)C)C(C)C)C42C(=O)N(C(C)C)C(C)C (centres undefined) | > 50 µM (inactive) | > 45.9 µM (inactive) | > 36.3 µM (inactive) | > 37.6 µM (inactive) | > 50 µM (inactive) | > 50 µM (inactive) | > 50 µM (inactive) | > 50 µM (inactive) | > 25.5 µM (inactive) | > 50 µM (inactive) | > 50 µM (inactive) | > 50 µM (inactive) | > 50 µM (inactive) | > 50 µM (inactive) | > 50 µM (inactive) | > 50 µM (inactive) | > 50 µM (inactive) | > 50 µM (inactive) |  |  |
| CCCN(CCC)C(=O)Cc1c2n(c3ccccc13)CCCc1ccccc1-2 | 5.21 µM (inactive) | 13.8 µM (inactive) | 14.4 µM (inactive) | 15.6 µM (inactive) | 13.5 µM (inactive) | 13 µM (inactive) |  |  | 16.6 µM (inactive) | 17.4 µM (inactive) | 16.9 µM (inactive) | 13.9 µM (inactive) | 15.7 µM (inactive) | 15.5 µM (inactive) | 12.9 µM (inactive) | 16.3 µM (inactive) | 14.8 µM (inactive) | 15.5 µM (inactive) |  |  |
| Cc1cc(O)c2c(c1O)C(=O)c1cccc(O)c1C2=O [ISLANDICIN] |  | > 100 µM (inactive) | > 100 µM (inactive) | > 100 µM (inactive) | > 100 µM (inactive) | > 100 µM (inactive) | > 100 µM (inactive) | > 100 µM (inactive) | > 100 µM (inactive) | > 100 µM (inactive) | > 100 µM (inactive) |  | > 100 µM (inactive) |  |  | > 100 µM (inactive) | > 100 µM (inactive) | > 100 µM (inactive) | > 100 µM (inactive) | > 100 µM (inactive) |
